Values joined by “and” are separate entries in the source; they are usually repeats but may differ in a detail not shown here. Equal values may be shown once.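 Protocol summary: plate cells (96-well), add compound at 5 concentrations, incubate 48 h, interpolate endpoints linearly. GI50 = concentration required for 50% inhibition of growth. Definition used: TGI = concentration required for complete inhibition of growth.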 Where a SMILES comes first, the peptide text is derived from it. The star is where a group is joined. Trt = c1ccc(C(c2ccccc2)(c2ccccc2)*)cc1; Cbz = O=C(OCc1ccccc1)*
Legend:
Experiment in all cases: inhibition of tumour cell growth, NCI panel, 48 h
[1] = test system: BT-549 breast
[2] = test system: T-47D breast
[3] = test system: MDA-N
[4] = test system: MCF7 breast
[5] = test system: KM20L2 colon
[6] = test system: M19-MEL melanoma
[7] = test system: DLD-1 colon
[8] = test system: SNB-78 CNS

Work on `COc1ccc(-c2cc(=O)c3c(O)c(OC)c(OC)c(OC)c3o2)cc1OC` yielded a TGI [1] of over 100 µM, a TGI [2] of over 100 µM and a TGI [3] of over 100 µM. For the same compound, the TGI [4] was over 100 µM.
Compound `O=C1NC(=NCc2ccccc2Cl)S/C1=C\c1ccc2ncccc2c1` has a GI50 [1] of 7.86 µM, a TGI [1] of over 25 µM and a GI50 [2] of over 25 µM. For the same compound, the TGI [2] was over 25 µM, the GI50 [4] was 9.2 µM and the TGI [4] was over 25 µM.
`C[C@@]1([C@H](OC(=O)c2ccccc2)C(N)=O)CO1` showed a GI50 [1] of 20.8 µM, a TGI [1] of 48.5 µM and a GI50 [2] of 30.4 µM. It also gave a TGI [2] of 83.3 µM, a GI50 [4] of 32 µM and a TGI [4] of over 100 µM.
Compound `NS(=O)(=O)c1ccc(Nc2cc(-c3ccc(O)c(F)c3)[nH]n2)cc1` has a GI50 [1] of 8.66 µM, a TGI [1] of over 25 µM and a GI50 [2] of over 16.6 µM. The TGI [2] was over 25 µM, the GI50 [4] was over 25 µM and the TGI [4] was over 25 µM.
In the case of `COc1cc2c(c(OC)c1OC)-c1ccc(NN(C(=O)c3ccccc3)C(=O)c3ccccc3)c(=O)cc1[C@@H](NC(C)=O)CC2` (tested in a mixture with another compound), the GI50 [1] is reported as 2.63 µM, the TGI [1] is reported as 8.15 µM and the GI50 [2] is reported as 4.71 µM. For the same compound, the TGI [2] was 42 µM, the GI50 [4] was 3.84 µM and the TGI [4] was over 100 µM.
With `COc1cc2cc(Oc3ccc(NC(=O)Nc4cc(C(F)(F)F)cc(C(F)(F)F)c4)cc3)c(C)nc2cc1OCCN1CCOCC1` the GI50 [1] was 1.87 µM, the TGI [1] was 7.35 µM and the GI50 [2] was 2.04 µM. It also gave a TGI [2] of 10.2 µM, a GI50 [4] of 1.43 µM and a TGI [4] of 3.91 µM.
Work on `COc1cc([N+](=O)[O-])c(OC)cc1-c1nc2sc(C)c(C)n2c1/C(N)=N/C(=N)N` yielded a GI50 [1] of over 100 µM, a TGI [1] of over 100 µM and a GI50 [4] of 1.53 µM. For the same compound, the TGI [4] was over 100 µM.
Work on `COc1cc(/C=C/C(=O)c2cccc(-n3cc(-c4cc(OC)c(OC)c(OC)c4)[nH]c3=O)c2)cc(OC)c1OC` yielded a GI50 [1] of 1.52 µM, a TGI [1] of 3.43 µM and a GI50 [2] of 3.08 µM. For the same compound, the TGI [2] was 22.8 µM, the GI50 [4] was 0.479 µM and the TGI [4] was 2.44 µM.
Work on `CN=c1ss/c(=N\C(=S)N(C)C)n1C` yielded a TGI [5] of over 100 µM, a TGI [6] of over 100 µM and a TGI [7] of over 100 µM. It also gave a TGI [8] of over 100 µM.
In the case of `O=C1C(c2ccccc2)=C(c2ccccc2)C(c2ccc(Cc3ccc(C4=C(c5ccccc5)C(=O)C(c5ccccc5)=C4c4ccccc4)cc3)cc2)=C1c1ccccc1`, the TGI [5] is reported as over 100 µM, the TGI [6] is reported as over 100 µM and the TGI [7] is reported as over 100 µM. For the same compound, the TGI [8] was over 100 µM.
With `COc1cc(C2c3cc4c(cc3[C@@H](NCCN(C)C)C3COC(=O)[C@H]23)OCO4)cc(OC)c1O` (stereo partly specified) the GI50 [5] was 0.425 µM and 1.14 µM, the TGI [5] was 2.16 µM and 3.62 µM and the TGI [6] was 4.11 µM and 7.18 µM. The TGI [7] was 4.03 µM and 7.43 µM, the GI50 [8] was 1.24 µM and 3.25 µM and the TGI [8] was 68.3 µM and 77.8 µM.
`CC(C)(CN1C(=O)C(Cl)=C(Cl)C1=O)CN1C(=O)C(Cl)=C(Cl)C1=O` gave a TGI [5] of 40 µM, a TGI [6] of 25 µM and a TGI [7] of 9.82 µM. For the same compound, the TGI [8] was 45.1 µM.
Work on `Clc1nccc2c(-c3csc(-c4c[nH]c5ccc(Br)cc45)n3)c[nH]c12` yielded a GI50 [1] of 4.7 µM, a TGI [1] of 24.4 µM and a GI50 [2] of 3.12 µM. For the same compound, the TGI [2] was 18 µM, the GI50 [4] was 2.2 µM and the TGI [4] was 11.6 µM.
Compound `COC(=O)C(CO)NC(=O)C(CSC(c1ccccc1)(c1ccccc1)c1ccccc1)NC(=O)OCc1ccccc1` (stereo unspecified) (Cbz-Cys(Trt)-Ser-OMe; configuration not given here) has a TGI [2] of over 52 µM and a TGI [4] of over 59.1 µM.
For `COc1ccc2nc3cc(Cl)ccc3c(NCCCNCCO)c2c1`, the GI50 [1] was 1.89 µM, the TGI [1] was 3.71 µM and the GI50 [2] was 0.625 µM. The TGI [2] was 3.41 µM, the GI50 [4] was 0.355 µM and the TGI [4] was 2.06 µM.
For `Cc1nc(N)nc(N)c1CCCCc1ccc(N)cc1`, the TGI [5] was 18.2 µM, the TGI [6] was 25.5 µM and the TGI [7] was 31.6 µM. The TGI [8] was 27.2 µM.
Work on `Cc1ccc(CNc2ccc(Br)cc2)cc1` yielded a TGI [2] of over 100 µM, a TGI [3] of over 100 µM and a TGI [4] of 61 µM.
With `O=C(O)C1=C/C(=C(/c2ccccc2)c2cc(C(=O)O)c(O)c3ccccc23)c2ccccc2C1=O` the TGI [1] was over 100 µM, the TGI [2] was over 100 µM and the TGI [3] was over 100 µM. For the same compound, the TGI [4] was over 100 µM.
`COc1ccc(-c2cc(-c3ccc(Nc4nc(Nc5ccccc5)nc(Nc5ccc(Cl)cc5)n4)cc3)nc(N)n2)cc1` showed a GI50 [1] of 10 µM, a TGI [1] of 29.5 µM and a GI50 [2] of 6.3 µM. The TGI [2] was 21.7 µM, the GI50 [4] was 5.34 µM and the TGI [4] was 21 µM.
`CCCCN(CCCC)C(=O)[C@H](CC)[C@@H]1CC[C@@H](C)[C@@H]([C@H](C)[C@@H](O)[C@@H](C)C(=O)[C@H](CC)C2O[C@]3(C=C[C@@H](O)[C@]4(CC[C@@](C)([C@H]5CC[C@](O)(CC)[C@H](C)O5)O4)O3)[C@H](C)C[C@@H]2C)O1` (stereo partly specified) was tested, and the GI50 [1] was 2.73 µM, the TGI [1] was 11.3 µM and the GI50 [2] was 2.34 µM. For the same compound, the TGI [2] was 63.8 µM, the GI50 [4] was 2.4 µM and the TGI [4] was 7.77 µM.
`COc1ccc2c(c1)OC(N)=C(C#N)C2c1cc(OC)c(OC)c(OC)c1` (stereo unspecified) was tested, and the GI50 [1] was 0.0268 µM, the TGI [1] was 0.0836 µM and the GI50 [2] was over 100 µM. For the same compound, the TGI [2] was over 100 µM, the GI50 [4] was 0.0361 µM and the TGI [4] was over 100 µM.
In the case of `CC1CC2C3CCC4=CC(=O)C=CC4(C)C3(F)C(O)CC2(C)C1(O)C(=O)COP(=O)(O)O` (stereo unspecified), the GI50 [1] is reported as 160 µM, the TGI [1] is reported as over 500 µM and the TGI [5] is reported as over 100 µM. The GI50 [2] was over 500 µM, the TGI [2] was over 500 µM and the TGI [3] was 47.4 µM. The GI50 [4] was over 500 µM, the TGI [4] was over 500 µM and the TGI [6] was over 100 µM. The TGI [7] was over 100 µM and the TGI [8] was over 100 µM.
`CC(C)(C)c1cc(C(=O)Nc2ccccc2C(=O)NCCN)cc(C(C)(C)C)c1` showed a GI50 [1] of 2.33 µM, a TGI [1] of 5.84 µM and a GI50 [2] of 1.76 µM. The TGI [2] was 3.51 µM, the GI50 [4] was 1.76 µM and the TGI [4] was 3.54 µM.
With `COc1cccc(/C=C/C(=O)c2ccc3cc(OC)ccc3c2)c1` the GI50 [1] was 8.07 µM, the TGI [1] was 17.7 µM and the GI50 [2] was 10.7 µM. For the same compound, the TGI [2] was 25.7 µM, the GI50 [4] was 15.4 µM and the TGI [4] was over 50 µM.
Work on `C/C(=N\O)c1ccc2ccc3ccccc3c2c1` yielded a TGI [2] of over 100 µM and a TGI [4] of over 100 µM.
`CN1CCN(CC(=O)N(C)c2ccc(N=C(c3ccccc3)c3c(O)[nH]c4ccc(C#N)cc34)cc2)CC1` gave a GI50 [1] of 1.68 µM, a TGI [1] of 3.69 µM and a GI50 [2] of 14.2 µM. For the same compound, the TGI [2] was 41.1 µM, the GI50 [4] was 0.451 µM and the TGI [4] was 13.7 µM.
For `CCOC(=O)CSc1cc(Cl)c(C)cc1S(=O)(=O)/N=C(/N=C/c1ccc([N+](=O)[O-])s1)NNC`, the GI50 [1] was 20.5 µM, the TGI [1] was 46.3 µM and the GI50 [2] was 12.5 µM. It also gave a TGI [2] of 40.1 µM, a GI50 [4] of 32.6 µM and a TGI [4] of over 100 µM.
`CC(C)/C=C1\CCC(CN(C)C)C1=O` (stereo unspecified) gave a TGI [1] of 7.83 µM, a TGI [5] of 28.6 µM and a TGI [3] of 7.78 µM. It also gave a TGI [4] of 1.8 µM, a TGI [6] of 33.7 µM and a TGI [7] of 11.2 µM. The TGI [8] was 23.8 µM.
`Nc1nnc2c(-c3ccccc3)[nH]nc2n1` showed a TGI [5] of over 100 µM and a TGI [8] of over 100 µM.

Reference: PubChem BioAssay (NCI)
